Earlier results, collected in patent US20070116643A1, “Novel aryloxypropanamines” (Concert Pharmaceuticals Inc., priority 2005, published 2007).
Where a name gives a salt, the structure may show the parent alone.

Assays:
5-HT reuptake [1] = conditions: rodent models
[2] = test system: central monoamine receptors
5-HT reuptake [3] = conditions: in humans
NE reuptake = conditions: in humans

## CNCC[C@H](Oc1cccc2ccccc12)c1cccs1 [Compound A, (S)-N-methyl-3-(naphthalen-1-yloxy)-3-(thiophen-2-yl)propan-1-amine hydrochloride]
5-HT reuptake [1]
  inhibition of neural cell firing / 5-HT reuptake: inhibiting neural cell firing by reducing reuptake of 5-HT
[2]
  affinity for central monoamine receptors: lacks affinity for central monoamine receptors
5-HT reuptake [3]
  inhibition of 5-HT reuptake: recapitulates the preclinically observed inhibition of 5-HT and NE reuptake
NE reuptake
  inhibition of NE reuptake: recapitulates the preclinically observed inhibition of 5-HT and NE reuptake
humans, radiolabeled Compound A
  circulating radioactivity attributable to parent drug, AUC basis: approximately 3%
Oral administration to humans, predominantly oxidative mechanisms
  extent of metabolism: rapidly and extensively metabolized
